From patent publication US20240400561A1, “NOVEL SUBSTITUTED SULFONYLUREA COMPOUNDS AS INHIBITORS OF INTERLEUKIN-1 ACTIVITY” (Viva Star Biosciences (Suzhou) Co., Ltd., priority 2021, published 2024)
pIC50: −log10 of the molar value.

Molecular target: T1, NLRP3 (Homo sapiens, UniProt Q96P20)
T1 construct: Seed THP-1 cells (5.56*10^5 cells/mL) containing 1.0 ug/mL LPS; endogenous in cells; host or cells: THP-1 cells
Test: THP-1 cell assay (LPS priming, nigericin), IL1β release by HTRF; called pyroptosis assay, THP IC50
Assay type: cell-based
Settings: NLRP3 inhibitory activity; THP-1 cells, 1.0 ug/mL LPS, compound 3 hrs, nigericin 5 uM 1 hr, IL1β in supernatant
In short: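 THP-1 cells were primed with 1.0 ug/mL LPS in serum-free RPMI 1640 alongside compound (10 doses from 5 uM, 1:3) for 3 h at 37° C. Nigericin (final 5 uM) was then added for 1 h. Supernatant IL1β was quantified by HTRF against a standard curve, with IC50 from a four-parameter fit.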

T1 sequence (Q96P20 whole entry): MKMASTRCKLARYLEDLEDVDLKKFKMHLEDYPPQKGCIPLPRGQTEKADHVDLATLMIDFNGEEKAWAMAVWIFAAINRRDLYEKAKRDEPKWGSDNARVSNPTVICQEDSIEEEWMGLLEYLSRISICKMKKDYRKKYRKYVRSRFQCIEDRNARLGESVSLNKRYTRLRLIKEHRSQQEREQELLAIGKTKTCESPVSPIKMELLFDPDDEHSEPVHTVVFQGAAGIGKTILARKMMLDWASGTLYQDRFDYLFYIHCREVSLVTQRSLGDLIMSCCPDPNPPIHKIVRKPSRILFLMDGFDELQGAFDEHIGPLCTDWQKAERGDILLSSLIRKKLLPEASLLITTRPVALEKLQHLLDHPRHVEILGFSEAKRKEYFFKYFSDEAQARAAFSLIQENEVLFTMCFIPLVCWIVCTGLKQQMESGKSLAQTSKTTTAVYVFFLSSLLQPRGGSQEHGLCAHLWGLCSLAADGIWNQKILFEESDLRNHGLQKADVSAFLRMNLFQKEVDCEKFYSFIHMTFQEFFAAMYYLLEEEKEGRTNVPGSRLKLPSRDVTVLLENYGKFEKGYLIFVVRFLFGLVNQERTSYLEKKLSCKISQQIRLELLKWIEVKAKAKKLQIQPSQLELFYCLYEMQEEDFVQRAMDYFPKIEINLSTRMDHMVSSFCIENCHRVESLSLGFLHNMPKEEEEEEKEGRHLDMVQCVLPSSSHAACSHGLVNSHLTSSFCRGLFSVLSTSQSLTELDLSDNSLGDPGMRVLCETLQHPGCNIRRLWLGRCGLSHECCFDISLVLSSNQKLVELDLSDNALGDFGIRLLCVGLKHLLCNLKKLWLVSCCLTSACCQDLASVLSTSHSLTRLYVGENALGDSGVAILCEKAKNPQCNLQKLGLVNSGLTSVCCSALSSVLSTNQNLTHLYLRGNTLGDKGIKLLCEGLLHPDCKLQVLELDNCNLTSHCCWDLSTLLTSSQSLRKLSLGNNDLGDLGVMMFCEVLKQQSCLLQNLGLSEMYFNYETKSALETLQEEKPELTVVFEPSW

Row | pIC50 | SMILES
1 | ≥ 7.52 | Cc1cc2c(c(NC(=O)NS(=O)(=O)c3ccn(C4CC4)n3)c1-c1ccc3ncnn3c1)CCC2 [Example 97, N-((5-([1,2,4]triazolo[1,5-a]pyridin-6-yl)-6-methyl-2,3-dihydro-1H-inden-4-yl)carbamoyl)-1-cyclopropyl-1H-pyrazole-3-sulfonamide]
2 | 6.52 to 7.52 | O=C(Nc1c2c(cc(CO)c1-c1ccn3nccc3c1)CCC2)NS(=O)(=O)c1ccn(C2CC2)n1 [Example 98, 1-cyclopropyl-N-((6-(hydroxymethyl)-5-(pyrazolo[1,5-a]pyridin-5-yl)-2,3-dihydro-1H-inden-4-yl)carbamoyl)-1H-pyrazole-3-sulfonamide]

Second part, the compound before the results:

Row | SMILES | pIC50
3 | Cc1cc2c(c(NC(=O)NS(=O)(=O)c3ccn(C[C@@H]4CCO4)n3)c1-c1ccn3ncnc3c1)CCC2 [Example 94, (S)—N-((5-([1,2,4]triazolo[1,5-a]pyridin-7-yl)-6-methyl-2,3-dihydro-1H-inden-4-yl)carbamoyl)-1-(oxetan-2-ylmethyl)-1H-pyrazole-3-sulfonamide] | 6.52 to 7.52
4 | Cc1cc2c(c(NC(=O)NS(=O)(=O)c3ccn(C[C@@H]4CCO4)n3)c1-c1ccc3ccnn3c1)CCC2 [Example 95, (S)—N-((6-methyl-5-(pyrazolo[1,5-a]pyridin-6-yl)-2,3-dihydro-1H-inden-4-yl)carbamoyl)-1-(oxetan-2-ylmethyl)-1H-pyrazole-3-sulfonamide] | 6.52 to 7.52
5 | O=C(Nc1c2c(cc(Cl)c1-c1ccn3cnnc3c1)CCC2)NS(=O)(=O)c1ccn(C2CC2)n1 [Example 96, N-((5-([1,2,4]triazolo[4,3-a]pyridin-7-yl)-6-chloro-2,3-dihydro-1H-inden-4-yl)carbamoyl)-1-cyclopropyl-1H-pyrazole-3-sulfonamide] | ≥ 7.52
